We go through two compounds from patent US20230406850A1, “CRYSTALLINE FORM OF HETEROCYCLIC COMPOUND, PREPARATION METHOD THEREFOR AND APPLICATION THEREOF” (WUHAN LL SCIENCE AND TECHNOLOGY DEVELOPMENT CO., LTD., priority 2020, published 2023).

Data set [1] addresses T1, hP2X3 (human purinergic P2X receptor subtype 3) (Homo sapiens, UniProt P56373).
T1 construct: expressed in transfected cells
T1 sequence (P56373 1-397): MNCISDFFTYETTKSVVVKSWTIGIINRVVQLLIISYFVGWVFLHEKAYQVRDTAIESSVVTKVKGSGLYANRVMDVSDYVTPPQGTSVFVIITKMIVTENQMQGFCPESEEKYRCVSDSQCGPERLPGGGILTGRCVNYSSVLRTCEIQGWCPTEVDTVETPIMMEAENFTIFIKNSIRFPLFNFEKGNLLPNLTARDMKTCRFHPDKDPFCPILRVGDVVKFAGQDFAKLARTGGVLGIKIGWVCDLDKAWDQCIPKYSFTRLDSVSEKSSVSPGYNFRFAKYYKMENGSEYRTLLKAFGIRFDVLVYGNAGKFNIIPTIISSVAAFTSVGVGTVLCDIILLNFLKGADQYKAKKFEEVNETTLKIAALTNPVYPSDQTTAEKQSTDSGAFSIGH
Put plainly: FLIPR intracellular calcium assay, hP2X3 in HEK293 cells. The format is cell-based. The following applies: agonist BZ-ATP 2.5 μM, read-out: P2X3 IC50. Here is the method: 18-24 hours before the FLIPR experiment, cells were seeded into 384 wells (10,000 cells/well) at a density of 400,000 cells/mL and incubated overnight in a cell culture incubator. […] 10 μL of test compound (dissolved at 10 mM in DMSO and serially diluted with buffer) or vehicle was then added to each well and allowed to equilibrate for 30 min at room temperature.

In data set [2] the target is T2, hP2X2/3 (heterodimeric receptors formed by human purinergic P2X receptor subtypes 2 and 3) (Homo sapiens, UniProt P56373+Q9UBL9).
T2 construct: expressed in transfected cells
T2 sequence (P56373 1-397): T1 sequence (P56373 1-397)
T2 sequence (Q9UBL9 1-471): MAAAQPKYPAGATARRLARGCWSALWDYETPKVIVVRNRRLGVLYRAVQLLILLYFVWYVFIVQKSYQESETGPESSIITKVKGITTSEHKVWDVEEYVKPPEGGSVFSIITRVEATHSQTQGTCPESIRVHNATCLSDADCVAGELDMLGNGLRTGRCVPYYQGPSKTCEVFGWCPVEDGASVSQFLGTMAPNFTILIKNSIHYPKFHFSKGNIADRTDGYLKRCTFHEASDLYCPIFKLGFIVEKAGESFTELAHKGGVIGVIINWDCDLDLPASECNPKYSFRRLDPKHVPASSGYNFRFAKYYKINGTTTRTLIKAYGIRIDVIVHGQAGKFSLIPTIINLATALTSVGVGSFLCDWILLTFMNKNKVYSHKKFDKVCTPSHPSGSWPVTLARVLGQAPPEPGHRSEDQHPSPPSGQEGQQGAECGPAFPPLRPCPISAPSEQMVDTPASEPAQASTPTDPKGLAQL
Put plainly: FLIPR intracellular calcium assay, hP2X2/3 in HEK293 cells (selectivity). The data set is classed as cell-based. Here is the method: 18-24 hours before the FLIPR experiment, cells were seeded into 96 wells (25000 cells/well) ata density of 250000 cells/mL and incubated overnight in a cell culture incubator. […] 75 μL 1 mM Fluo-4 AM fluorescent dye (Thermo, F14202) was added to each well, and the dye load was incubated for 1.0 hour at 37° C. Then, the 96-well plate was washed once with buffer, and 50 μL of buffer containing test compound or vehicle was added to each well, and it was incubated at room temperature for 30 minutes. […] Then agonist (BZ-ATP (Sigma, B6396) at a final concentration of 5 μM) or vehicle (ultrapure water) was added at 50 μL/well, the fluorescence value was measured at 1-second intervals for 2 minutes, and finally the output fluorescence was counted analysis.
On the technique in general: A change in cytosolic calcium serves as a functional read-out for many receptors and channels.

The subject of data set [3] is Dunkin Hartley guinea pigs, citric acid induced cough. Put plainly: Simple citric acid cough model. The format is in vivo, guinea pig. The following applies: 30 mg/kg. As to the method:
Male Dunkin Hartley guinea pigs (300-350 g) were placed in the animal atomization box, the door of the atomization box was closed, and the ultrasonic atomizer (Guangdong Yuehua) was opened at the same time, at the maximum atomization amount (about 2 mL/min) 17.5% citric acid gas was filled with the atomization box, which was continuously atomized for 20 seconds, and the cough performance of the animals was continuously observed within 10 min after the atomization started. During the 10-minute observation period, manual counting of coughs was required, and the number of coughs was judged according to the guinea pig's coughing posture, such as abdominal twitching, mouth opening, head down hooking, etc., as well as the sound of coughing, the number of coughs in the first 5 minutes and the number of coughs in the first 10 minutes were recorded, and the cough incubation period of guinea pigs was also recorded, that is, the time from citric acid induction to the first cough as well as the sound of coughing.

Data set [4] has as its system Dunkin Hartley guinea pigs, ATP-citric acid induced cough. Put plainly: ATP-citric acid cough model. The data set is classed as in vivo, guinea pig. Here is the method: Male Dunkin Hartley guinea pigs (300-400 g) were placed in a whole-body volume scanning box for 3 to 5 minutes, and then subjected to ATP atomization for 2 minutes, with an interval of 3 minutes, followed by citric acid atomization for 5 minutes, and all atomization rates were about 300 μL/min. From citrate acid atomization, cough times and cough latency of animals within 10 min were recorded. During the 10-minute observation period, manual counting of coughs was required, and the number of coughs was judged according to the guinea pig's coughing posture, such as abdominal twitching, mouth opening, head down hooking, etc., as well as the sound of coughing, the number of coughs in the first 10 minutes were recorded, and the cough incubation period of guinea pigs was also recorded.
Animals were divided into vehicle group, dextromethorphan (63 mg/kg) positive group, AF-219 (30 mg/kg) positive group and compound 172 (3, 10, 30 mg/kg) administration group of Embodiment. All compounds were administered orally, except dextromethorphan, which was administered 40 minutes before ATP-citric acid exposure, and the rest compounds were […].

In a further data set the test system is SD rats. Briefly: Taste disorder test by double bottle method. The data set is classed as in vivo, rat. The following applies: for Quinine/tap water * 100%: single intraperitoneal injection, 15 minutes. The source says:
SPF male SD rats (6-8 weeks) received 3 days of adaptive drinking water training immediately after storage, and the specific training content was that animals were kept in a single cage, and two bottles of water (both common drinking water) were placed in each cage, and during the adaptive training, water treatment was forbidden all night (the drinking water bottle was removed), and drinking water was given again at 8:30 am to 5:30 pm, and then this cycle lasted for 3 days, and the two bottles of water were changed every day, and during the whole adaptive training period, animals were ate freely. All animal water bottles were removed 20 hours before the formal experiment, and water was banned until the time of the experiment. During the formal experiment, all animals were randomly divided into groups, and the test compound or vehicle was given before the water supply was renewed, and the drug was given by single intraperitoneal injection, and the administration time was determined according to the Tmax of the test compound. Then, the animals were placed in a single cage, and given two bottles of drinking water, one bottle of ordinary drinking water and one bottle of 0.3 mM tonic water, and the water consumption of animals was observed within 15 minutes, and the quinine water consumption/ordinary water consumption was statistically analyzed, with positive compound 2 as the positive control of taste disorder.

The next data set concerns refractory cough. The following applies: phase II clinical trial; cited from earlier work.

Structures are written as SMILES. Some results are limits rather than exact numbers.

Broadly, the IC50 is the concentration needed to halve the response being measured. For the compound `COC(=O)N1CCO[C@@H](Cc2c(-c3c(F)cc(S(N)(=O)=O)cc3F)nc3cc(Cl)ccn23)C1` [Compound 172, methyl (S)-2-((7-chloro-2-(2,6-difluoro-4-sulfamoylphenyl)imidazo[1,2-a]pyridin-3-yl)methyl)morpholine-4-carboxylate], the 50% inhibitory concentration (IC50) was 0.7 nM in data set [1] and over 60000 nM in data set [2] (HEK293 cells, agonist BZ-ATP 5 μM). The Selectivity multiple in data set [2] (P2X2/3 versus P2X3) was over 85714. Further, the efficacy in words entry in data set [3] is “comparable to the efficacy of positive compound”. Besides, the “Cough suppression rate vs Vehicle” value in data set [4] (3 mg/kg oral) worked out at 30.80%; in data set [4] (10 mg/kg oral), 51.20%; in data set [4] (30 mg/kg oral) it was 52.80%. Further, the “effect on number of coughs compared with the vehicle group, in words” value in data set [4] (guinea pig, in vivo) is listed as “significantly reduce the number of coughs”. For the same compound, the entries for the “Quinine/tap water * 100%” value with SD rats (5 mg/kg), in the data set on SD rats (10 mg/kg) and with SD rats (20 mg/kg) were 7.05%, 7.41% and 8.66%, respectively. The “effect on quinine/water ratio in words” value with SD rats (5, 10 and 20 mg/kg) is recorded as “no obvious effect on the quinine/water ratio of rats”.

Regarding `COc1cc(C(C)C)c(Oc2cnc(N)nc2N)cc1S(N)(=O)=O` [Positive compound 2, reference compound], the “Quinine/tap water * 100%” value in the data set with SD rats (10 mg/kg) was 18.62%. Further, the “Quinine/tap water * 100%” value in the data set on SD rats (20 mg/kg) was found to be 34.99%. Besides, in the data set on refractory cough, the “effect on refractory cough” value is on record as “good effect” and the taste side effect result is “taste disturbance is a serious problem”.
